Key:
[1] = tested on: MCF7-vector; assay: Orthotopic nude mouse model, MCF7-vector; format: in vivo, nude mice; details: mammary fat pad, daily subcutaneous injection in peanut oil
Experimental: (§1) Orthotopic mouse model—The cell lines mixed with Matrigel (BD Biosciences) at the ratio of 1:1 were inoculated into the abdominal mammary fat pad of the 5 to 6 week old female nude mice. When the tumor were palpable, the mice were randomized into treatment and control groups where treatment groups received daily subcutaneous injection of tamoxifen (Sigma) dissolved in peanut oil (Sigma) and the control groups received subcutaneous injection of the solvent only. Tumor sizes were measured by caliper and tumor volume was calculated as (length*width*width)/2. Tumor growth rate was expressed as the % of tumor volume change calculated as the tumor volume measured at the indicated time point normalized against the tumor volume at day 0*100%. This protocol has been reviewed and approved by Committee on the Use of Live Animals in Teaching and Research (CULATR), the University of Hong Kong (CULATR No.: 3259-14)
(§2) We further validated the effect of BQ323636.1 overexpression in conferring tamoxifen resistance using a nude mouse model. […] Tumor sizes were measured by caliper and tumor volume was calculated as (length*width*width)/2. Tumor growth rate was expressed as the % of tumor volume change calculated as the tumor volume measured at the indicated time point normalized against the tumor volume at day 0*100%. […]

[2] = tested on: ZR75-BQ323636.1; assay: Orthotopic nude mouse model, ZR75-BQ323636.1; format: in vivo, nude mice; details: ZR75-BQ323636.1, mammary fat pad, daily subcutaneous injection in peanut oil
Experimental: as §1, §2

[3] = tested on: ZR75-BQ323636.1 and MCF7-BQ323636.1; assay: MTT assay, tamoxifen response of BQ323636.1 overexpressing cell lines; format: cell-based, Human; details: BQ323636.1 overexpression versus empty vector cell lines
Experimental: Cell lines—Human breast cancer cell lines MCF7 and ZR-75-1 were purchased from American Type Culture Collection and were re-authenticated by short tandem repeat profiling (Zhang, Gong et al. 2013). MCF7 was cultured in Dulbecco's Modified Eagle's Medium supplemented with 10% FBS and 1% penicillin/streptomycin and ZR-75-1 was cultured in Improved Minimum Essential Medium (IMEM) supplemented with 5% FBS and 1% penicillin/streptomycin. LCC2 and AK-47 are the two tamoxifen resistant cell lines derived from MCF7 and ZR-75-1, respectively and were kindly provided by Dr. Robert Clarke (Georgetown University Medical School, Washington, D.C.) (Wong, Dai et al. 2006) and have been used in our previous study (Zhang, Gong et al. 2013). LCC2 and AK-47 were both cultured in IMEM supplemented with 5% charcoal-stripped FBS and 1% penicillin/streptomycin. All the cell lines used in this study have been passaged and kept fewer than 6 months after the re-authentication or thawing. […]
MTT assay—Cells were seeded at a density of 6×10^3 cells/well. […] Extinction of the samples was measured by the Infinite 200 microtiter plate reader (Tecan) at 570 nm with a reference wavelength at 750 nm. Background MTT readings were subtracted from the samples. […]

[4] = tested on: MCF7-BQ323636.1; assay: Orthotopic nude mouse model, MCF7-BQ323636.1; format: in vivo, nude mice; details: MCF7-BQ323636.1, mammary fat pad, daily subcutaneous injection in peanut oil
Experimental: as §1, §2

[5] = tested on: ZR75-vector; assay: Orthotopic nude mouse model, ZR75-vector; format: in vivo, nude mice; details: mammary fat pad, daily subcutaneous injection in peanut oil
Experimental: as §1, §2

For CC/C(=C(\c1ccccc1)c1ccc(OCCN(C)C)cc1)c1ccccc1 [tamoxifen], the “tumor growth versus solvent control group” value [1] was “significantly reduced tumor growth”, the “tumor growth versus solvent control group” value [2] was “no change of tumor growth” and the “tamoxifen resistance in MTT assay” value [3] was “induced the tamoxifen resistance”. For the same molecule, the “tumor growth versus solvent control group” value [4] was “no change of tumor growth” and the “tumor growth versus solvent control group” value [5] was “significantly reduced tumor growth”.

Reference: US10823735B2, “Monoclonal antibody for predicting tamoxifen response in breast cancer patients” (The University of Hong Kong, priority 2015, dated 2020)
